pIC50: −log10 of the molar value.
Key:
[1] = target: Wee1 kinase (Homo sapiens, UniProt P30291); experiment: WEE1 protein kinase inhibitory activity assay (ADP-GLO luminescence); type: biochemical; conditions: for pIC50: Wee1 10 ng/well, ATP 10 µM, 3 h, 37 °C
Experimental: The influence of the compound MRANK-106 of the present disclosure on the kinase activity of Weel was assessed using an in vitro kinase reaction system.
Table 2-1. Information about reagents and consumables
① 1× kinase buffer: A 5× kinase buffer was diluted with ddH2O to make a 1× kinase buffer. Table 2-3. The reagent components added to the 1× kinase buffer
③ 5× enzyme working solution: The optimization of the enzyme concentration had been completed in previous work, and the concentration of the reagent used in the screening is shown in Table 2-4. A 5× enzyme working solution of the enzyme was formulated using the 1× kinase buffer.
④ Compound formulation: A 10 mM mother liquor was formulated using DMSO, aliquoted, and then stored at -20 °C. Immediately before use, the mother liquor was thawed, diluted with DMSO to 1 mM, serially diluted 4-fold to 10 concentration points, and then 40-fold diluted with the 1× kinase buffer to give a 2.5× working solution. Table 2-4. The experimental conditions for the kinase activity assay
After the above reagents were formulated and equilibrated to room temperature, 4 µL of the diluted solution of the compound to be tested and 2 µL of the formulated enzyme solution were added to reaction wells. After shaking and centrifugation, the plate was incubated at room temperature for 15 min, and 4 µL of the ATP solution was then added to start a kinase reaction. After 3 h of reaction at 37 °C, 10 µL of an ADP-GLO reagent was added. After thorough mixing, the mixture was left to react at room temperature for 40 min, and 20 µL of a detection reagent was then added. After 30 min of reaction at room temperature, the luminescence signals were detected using a SpectraMax L instrument. Two independent duplicate assays were performed. The inhibition rate of each well was calculated based on all activity wells and background signal wells, with an average calculated for duplicate wells. Meanwhile, the inhibition rate was plotted using the professional graphing and analysis software PRISM 9.0, and the IC50 was calculated.
The inhibition rates of the compounds to be tested against the kinase activity of Wee1 were calculated using the following formula: Inhibition rate% = (Lumvehicle−Lumcompound)/(Lumvehicle−Lumblank) × 100% [formula] • Lumcompound: the luminescence of the sample treatment groups • Lumvehicle: the luminescence of the solvent control group • Lumblank: the luminescence of the blank group

[2] = test system: A427 cells; experiment: Tumor cell proliferation inhibitory activity assay (CCK-8); type: cell-based, Human; conditions: for pIC50: Homo sapiens, A-427, 72 h compound incubation, CCK-8
Experimental: Human lung cancer A427 cells are cancer cells reported to be sensitive to wee1 inhibitors. In this assay, the anti-cancer effects of the compounds of the present disclosure were verified by assessing the activity of the test substances in inhibiting A427 cell proliferation.
A427 cells were cultured according to the cell culture instructions, and cells in the logarithmic growth phase were collected, counted, resuspended in a complete culture medium, and inoculated into a 96-well plate at a cell concentration of 100 µL/3000 cells/well. The cells were incubated in an incubator at 37 °C with 100% relative humidity and 5% CO2 for 24 h.
The compounds to be tested were dissolved in DMSO and diluted 4-fold with a culture medium from 10 µM to 10 concentration gradients.
The culture medium waste was pipetted off, and 100 µL of the formulated culture medium of the compound to be tested was added to each well. The cells were incubated in an incubator at 37 °C with 100% relative humidity and 5% CO2 for 72 h.
The plate was taken out, the CCK-8 reagent was added at 10 µL/well, and the plate was incubated in an incubator at 37 °C for 2-4 h.
The cell growth inhibition rates of the drugs were calculated using the following formula: Cell growth inhibition rate% = [(Ac−As)/(Ac−Ab)] × 100% [formula] • As: the OA of the samples (cells + CCK-8 + compounds to be tested) • Ac: the OA of the normal growth cell control (cells + CCK-8) • Ab: the OA of the blank control (culture medium + CCK-8)
IC50 curve fitting was performed using the software Graphpad Prism 6 and the calculation formula XY-analysis/Nonlinear regression(curve fit)/Dose response-Inhibition/log(inhibitor)vs. response-Variable slope(four parameters), and the IC50 values were calculated. Table 1. Data analysis and results for some representative compounds

[3] = test system: A427 human lung cancer cells; experiment: In vivo efficacy study against A427 tumors (subcutaneous tumor-bearing model); set-up: species or system BALB/c nude mice; conditions: for Relative tumor inhibition rate (%) Day 28 / Relative tumor volume Day 28: PO
Description: (§1) A427 human lung cancer cells were subcultured and expanded in an MEM culture medium containing 10% FBS. BALB/c nude mice aged 6-8 weeks were taken and each subcutaneously injected with 5 × 10^6 cells to establish a tumor-bearing model. The tumor volume was monitored, and when the tumor volume reached about 150 mm^3, the animals were randomized into 5 groups according to body weight and tumor volume. The animals were given, by oral gavage, the vehicle or compounds to be tested (ZN-c3 and IE) once daily for a total of 28 days. During the period of administration, the tumor volume and the animal body weight were measured twice a week, and the animals' states were observed daily. At the endpoint, the animals were euthanized with carbon dioxide, and the subcutaneous tumors were isolated and weighed.
(§2) The data calculation formulae are shown below: The tumor volume (TV) was calculated using the formula 1/2×axb^2, where a and b represent the length and width measurements of the tumor, respectively.
(§3) The tumor growth inhibition rate (%TGITV) was calculated using the formula (1 - TVT/TVC) × 100%, where TVc represents the average tumor volume of the negative control group, and TVT represents the average tumor volume of the treatment group.
(§4) The relative tumor volume (RTV) was calculated using the formula Vt/V0, where V0 represents the tumor volume at the time of grouping, and Vt represents the tumor volume at each measurement.

[4] = test system: Human ovarian cancer OVCAR-3 cells; experiment: In vivo efficacy study against OVCAR-3 tumors (subcutaneous tumor-bearing model); set-up: species or system BALB/c nude mice; conditions: for Relative tumor inhibition (%) Day 28 / Relative tumor volume Day 28: PO
Experimental: as §1, with “Human ovarian” for “A427 human lung”, “cancer OVCAR-3” for “cancer”, “RPMI-1640” for “MEM”, “20% FBS and 0.01 mg/mL bovine insulin.” for “10% FBS.”
as §2, §3, §4

Chain of Wee1 kinase (P30291 whole entry): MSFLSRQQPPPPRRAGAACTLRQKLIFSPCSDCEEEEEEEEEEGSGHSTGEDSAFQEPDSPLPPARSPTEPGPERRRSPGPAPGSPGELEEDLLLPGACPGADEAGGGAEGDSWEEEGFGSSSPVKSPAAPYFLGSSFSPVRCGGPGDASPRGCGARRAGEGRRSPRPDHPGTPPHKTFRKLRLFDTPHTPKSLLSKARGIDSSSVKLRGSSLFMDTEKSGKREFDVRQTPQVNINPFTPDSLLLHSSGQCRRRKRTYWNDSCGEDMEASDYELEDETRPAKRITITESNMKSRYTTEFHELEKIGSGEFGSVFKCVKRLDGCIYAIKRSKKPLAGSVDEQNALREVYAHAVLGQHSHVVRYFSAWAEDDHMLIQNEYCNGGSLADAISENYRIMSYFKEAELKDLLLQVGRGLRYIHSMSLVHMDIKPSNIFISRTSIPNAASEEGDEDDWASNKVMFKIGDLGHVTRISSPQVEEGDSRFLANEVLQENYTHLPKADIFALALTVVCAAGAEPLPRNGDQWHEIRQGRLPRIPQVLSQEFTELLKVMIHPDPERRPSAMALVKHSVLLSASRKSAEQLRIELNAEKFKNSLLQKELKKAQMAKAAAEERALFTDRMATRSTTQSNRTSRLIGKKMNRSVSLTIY

Row | SMILES | pIC50 [1] | pIC50 [2] | Relative tumor inhibition rate (%) Day 28 ([3]; 30mg/kg, QD×28) | Relative tumor volume Day 28 ([3]; 30mg/kg, QD×28) | Relative tumor inhibition rate (%) Day 28 ([3]; 80mg/kg, QD×28) | Relative tumor volume Day 28 ([3]; 80mg/kg, QD×28) | Relative tumor inhibition (%) Day 28 ([4]; 100mg/kg, QD×28) | Relative tumor volume Day 28 ([4]; 100mg/kg, QD×28) | inhibition of the Weel target (in words) ([1]; summary statement on the assay results) | activity in inhibiting cancer cell proliferation compared with reference compound Debio 0123 or ZN-c3 ([2]; comparison in words) | Relative tumor inhibition rate (%) Day 28 ([3]; 80/60 mg/kg, QD × 28) | Relative tumor volume Day 28 ([3]; 80/60 mg/kg, QD × 28) | activity in inhibiting tumor growth in the A427 tumor model compared with ZN-c3 ([3]; comparison in words) | Relative tumor inhibition (%) Day 28 ([4]; 20 mg/kg, QD × 28) | Relative tumor volume Day 28 ([4]; 20 mg/kg, QD × 28) | Relative tumor inhibition (%) Day 28 ([4]; 40 mg/kg, QD × 28) | Relative tumor volume Day 28 ([4]; 40 mg/kg, QD × 28) | Relative tumor inhibition (%) Day 28 ([4]; 80/60 mg/kg, QD × 28) | Relative tumor volume Day 28 ([4]; 80/60 mg/kg, QD × 28) | activity in inhibiting tumor growth in the OVCAR-3 tumor model compared with ZN-c3 ([4]; comparison in words)
1 | C=CCn1c(=O)c2cnc(Nc3ccc(N4CCN(C)CC4)cc3)nc2n1-c1ccc2c(n1)C(O)(CC)CC2 (stereo not drawn) [ZN-c3, reference compound] | 8.25 | 6.89 | 16.17% | 5.03 | 48.93% | 3.12 | 61.10% | 2.01 |  |  |  |  |  |  |  |  |  |  |  | 
2 | Cc1cc(Nc2ncc3c(=O)n4n(c3n2)-c2cccc(n2)[C@](C)(O)CCC=CC4)ccc1OC1CCN(C)CC1 (stereo in doubt) [Compound IE, (R,Z)-12-hydroxy-12-methyl-2-((3-methyl-4-((1-methylpiperidin-4-yl)oxy)phenyl)amino)-7,10,11,12-tetrahydro-5H-13,17-(azeno)pyrimido[4',5':3,4]pyrazolo[1,2-a] [1,2]diazacyclotridecin-5-one] | 8.11 | 7.89 | 60.81% | 2.41 |  |  |  |  | strongly inhibited | several times to several dozen times higher | 99.75% | 0.02 | higher activity than the reference molecule ZN-c3 | 40.51% | 3.16 | 81.11% | 0.94 | 92.69% | 0.38 | significantly better activity than ZN-c3
